The record followed here is PubChem BioAssay (NCI).

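Compound exposure: 48 hours, 5 concentrations, 96-well plates. GI50 is the concentration that inhibits growth by half. TGI is the concentration that stops growth completely.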

Among the test systems are EKVX NSCLC; HCT-15 colon; OVCAR-4 ovarian; K-562 leukemia; SK-MEL-5 melanoma; SR leukemia; LOX IMVI melanoma; HT29 colon; A498 renal; SF-539 CNS.
Holding throughout (experiment): DTP human tumour cell line panel, 48 h

On to `O=C(OCC(Cl)(Cl)Cl)N1CC[C@H](C2CCCCC2)C1`, for which the TGI with EKVX NSCLC worked out at 32.4 µM; with HCT-15 colon, 34.8 µM; with OVCAR-4 ovarian, 31.2 µM; in the experiment on K-562 leukemia, 53 µM; in the experiment on SK-MEL-5 melanoma it was 30 µM; in the experiment with SR leukemia, 40.6 µM. In the experiment with LOX IMVI melanoma, this compound returned a TGI of 41.1 µM.
As for `Nc1ncnc2c1ccn2C/C=C/CO`, the concentration for total growth inhibition (TGI) in the experiment with EKVX NSCLC, with HCT-15 colon, in the experiment with OVCAR-4 ovarian, with K-562 leukemia, with HT29 colon and in the experiment on SK-MEL-5 melanoma was greater than 100 µM in each case. The TGI with A498 renal, in the experiment on SF-539 CNS and in the experiment on LOX IMVI melanoma was greater than 100 µM each time.
As for `Cc1ccnc(NC(=S)Nc2ccc([N+](=O)[O-])cc2)c1`, the TGI in the experiment on EKVX NSCLC, in the experiment with HCT-15 colon, with OVCAR-4 ovarian, in the experiment with K-562 leukemia, in the experiment on HT29 colon and in the experiment on SK-MEL-5 melanoma was greater than 100 µM throughout. Also, the TGI with SR leukemia was greater than 100 µM; in the experiment on SF-539 CNS, 85.4 µM; in the experiment with LOX IMVI melanoma, greater than 100 µM.
As for `Cc1c2c(c(C)n1-c1ccccc1)C(=O)N(CCN1CCN(c3cccc(C(F)(F)F)c3)CC1)C2=O`, the TGI was greater than 100 µM in the experiment on EKVX NSCLC; greater than 100 µM in the experiment with HCT-15 colon; greater than 100 µM in the experiment on OVCAR-4 ovarian; greater than 100 µM in the experiment on K-562 leukemia; greater than 100 µM with HT29 colon; 20.8 µM in the experiment with SK-MEL-5 melanoma. Further, the TGI in the experiment with A498 renal, with SF-539 CNS and in the experiment with LOX IMVI melanoma was greater than 100 µM in each case.
For `COC(=O)c1ccccc1CC1Cc2cccc(C)c2C1=O` (stereo unspecified), the total growth inhibition concentration (TGI) in the experiment with EKVX NSCLC is 41.9 µM; in the experiment with HCT-15 colon it was 73.3 µM; in the experiment on OVCAR-4 ovarian, greater than 100 µM; in the experiment on K-562 leukemia, 68.4 µM; in the experiment on HT29 colon, 58.3 µM; in the experiment with SK-MEL-5 melanoma it was 37.5 µM. In addition, the TGI in the experiment with SF-539 CNS is greater than 100 µM; in the experiment with LOX IMVI melanoma it was 39.6 µM.
For the compound `CSc1nc2c(c(N(C)C)n1)C(O)n1c(nc3ccccc31)S2` (stereo unspecified), the TGI with EKVX NSCLC was greater than 100 µM; in the experiment with HCT-15 colon it was greater than 100 µM; with OVCAR-4 ovarian it was 24.5 µM; in the experiment on K-562 leukemia it was greater than 100 µM; in the experiment with HT29 colon, greater than 100 µM; in the experiment with SK-MEL-5 melanoma, greater than 100 µM. Besides, the TGI in the experiment with A498 renal is greater than 100 µM; in the experiment on SF-539 CNS, 77.2 µM; with LOX IMVI melanoma, 75.5 µM.
For `COc1ccc(CC(N)=O)cc1OC`, the TGI in the experiment with EKVX NSCLC, in the experiment on HCT-15 colon, in the experiment with OVCAR-4 ovarian, in the experiment on K-562 leukemia, in the experiment with HT29 colon and in the experiment on SK-MEL-5 melanoma was greater than 1250 µM in each case. Also, the TGI with A498 renal, in the experiment with SF-539 CNS and in the experiment on LOX IMVI melanoma was greater than 1250 µM in each case.
As to `CN1CCN(Cc2cc3c(nn2)-c2ccccc2C3=O)CC1`, the TGI with EKVX NSCLC was greater than 100 µM; with HCT-15 colon it was greater than 100 µM; in the experiment with K-562 leukemia, greater than 100 µM; in the experiment on HT29 colon it was greater than 100 µM; with SK-MEL-5 melanoma it was 35.1 µM; in the experiment with SR leukemia, greater than 100 µM. The TGI with SF-539 CNS is greater than 100 µM.
As to `CCCCOCCOC1=C(Cl)C(=O)c2c(O)ccc(O)c2C1=O`, the TGI in the experiment on EKVX NSCLC was determined as 7.59 µM; with HCT-15 colon it was 0.331 µM; in the experiment with OVCAR-4 ovarian it was 1.99 µM; in the experiment with HT29 colon it was 2.16 µM; in the experiment with SK-MEL-5 melanoma, 1.98 µM; in the experiment on A498 renal, 4.33 µM. In addition, the results for the TGI in the experiment on SF-539 CNS and in the experiment with LOX IMVI melanoma were 2.44 µM and 0.946 µM, respectively.
Turning to `C/C1=C\[C@H](C)C[C@H](C)OC(=O)[C@H](C)NC(=O)[C@@H](Cc2ccc(O)c(Br)c2)N(C)C(=O)[C@H](C)NC(=O)[C@@H](C)C1`, the concentration for total growth inhibition (TGI) in the experiment with EKVX NSCLC is greater than 4.7 µM; in the experiment on HCT-15 colon, greater than 25 µM; in the experiment on OVCAR-4 ovarian, 1.92 µM; in the experiment with K-562 leukemia, greater than 25 µM; in the experiment with HT29 colon, greater than 3.13 µM; with SK-MEL-5 melanoma, 0.315 µM. Moreover, the TGI with A498 renal was determined as 0.051 µM; in the experiment with SF-539 CNS, 0.117 µM; in the experiment on LOX IMVI melanoma, 0.394 µM.
Regarding `O=C(CNc1ccc(Cl)cc1Cl)Nn1c(-c2ccccc2)nc2ccccc2c1=O`, the TGI came out at 35.5 µM in the experiment with EKVX NSCLC; 33.5 µM in the experiment with HCT-15 colon; 32.2 µM in the experiment with OVCAR-4 ovarian; 36.5 µM in the experiment with K-562 leukemia; 37.6 µM in the experiment on HT29 colon; 18.5 µM in the experiment with SK-MEL-5 melanoma. Further, the TGI with SR leukemia was greater than 100 µM; in the experiment on SF-539 CNS, 35.6 µM; in the experiment with LOX IMVI melanoma, 24.1 µM.
As to `COc1cc2c(cc1OCCCCCN1CCN(c3ncnc4ccccc34)CC1)N=CC1CCCN1C2=O` (stereo unspecified), the 50% growth inhibitory concentration (GI50) in the experiment on EKVX NSCLC is 0.114 µM; with HCT-15 colon it was 0.206 µM; with OVCAR-4 ovarian, 0.0498 µM; in the experiment with K-562 leukemia, less than 0.0174 µM; with HT29 colon, 0.0275 µM; in the experiment with SK-MEL-5 melanoma, 0.018 µM. The 50% growth inhibitory concentration (GI50) in the experiment on A498 renal was 0.018 µM; in the experiment on SF-539 CNS, 0.0268 µM; in the experiment with LOX IMVI melanoma, 0.0167 µM. Also, the total growth inhibition concentration (TGI) in the experiment with EKVX NSCLC was 0.724 µM; in the experiment on HCT-15 colon, 4.09 µM; with OVCAR-4 ovarian it was 2.28 µM; in the experiment on HT29 colon, 10.8 µM; with SK-MEL-5 melanoma, 0.0338 µM; with A498 renal it was 0.034 µM. Besides, in the experiment with SF-539 CNS, the TGI came out at 0.0685 µM.
On to `O[C@H]1[C@H](O)[C@@H](O)CN2CC[C@H](O)[C@H]12`, for which the TGI in the experiment on EKVX NSCLC, in the experiment on HCT-15 colon, in the experiment on OVCAR-4 ovarian, in the experiment on K-562 leukemia, in the experiment with HT29 colon and in the experiment on SK-MEL-5 melanoma was greater than 100 µM each time. In addition, the concentration for total growth inhibition (TGI) in the experiment with A498 renal, in the experiment with SF-539 CNS and with LOX IMVI melanoma was greater than 100 µM throughout.
Take `Nc1ncc2c(n1)-c1ccccc1OC2N1CCCC1` (stereo unspecified): the concentration for total growth inhibition (TGI) in the experiment with EKVX NSCLC, in the experiment on HCT-15 colon, in the experiment with OVCAR-4 ovarian, with K-562 leukemia, with HT29 colon and in the experiment on SK-MEL-5 melanoma was greater than 100 µM throughout. For the same compound, the total growth inhibition concentration (TGI) in the experiment on SR leukemia, with SF-539 CNS and in the experiment with LOX IMVI melanoma was greater than 100 µM throughout.
Consider `O=C(O)c1cccc(S(=O)(=O)NN2C(=O)CSC2c2ccc(Cl)cc2Cl)c1` (stereo unspecified), for which the TGI in the experiment on EKVX NSCLC, in the experiment on HCT-15 colon, with K-562 leukemia, in the experiment with HT29 colon, in the experiment with SK-MEL-5 melanoma and in the experiment on A498 renal was greater than 100 µM each time. Besides, the TGI was 83.5 µM in the experiment with SR leukemia, 40 µM in the experiment on SF-539 CNS and greater than 100 µM with LOX IMVI melanoma.

Usually TGI stands for the concentration giving total growth inhibition. Lower therefore signals more potent growth arrest. As usually defined, the GI50 is the concentration that inhibits growth by half.
